# Experimental data as given in patent US8563559B2 (Rigel Pharmaceuticals, Inc., priority 2006, dated 2013).
# Molecular target: T1, Axl (Homo sapiens, UniProt P30530)
# T1 construct: endogenous in cells; host or cells: HeLa
# T1 sequence (P30530 26-894): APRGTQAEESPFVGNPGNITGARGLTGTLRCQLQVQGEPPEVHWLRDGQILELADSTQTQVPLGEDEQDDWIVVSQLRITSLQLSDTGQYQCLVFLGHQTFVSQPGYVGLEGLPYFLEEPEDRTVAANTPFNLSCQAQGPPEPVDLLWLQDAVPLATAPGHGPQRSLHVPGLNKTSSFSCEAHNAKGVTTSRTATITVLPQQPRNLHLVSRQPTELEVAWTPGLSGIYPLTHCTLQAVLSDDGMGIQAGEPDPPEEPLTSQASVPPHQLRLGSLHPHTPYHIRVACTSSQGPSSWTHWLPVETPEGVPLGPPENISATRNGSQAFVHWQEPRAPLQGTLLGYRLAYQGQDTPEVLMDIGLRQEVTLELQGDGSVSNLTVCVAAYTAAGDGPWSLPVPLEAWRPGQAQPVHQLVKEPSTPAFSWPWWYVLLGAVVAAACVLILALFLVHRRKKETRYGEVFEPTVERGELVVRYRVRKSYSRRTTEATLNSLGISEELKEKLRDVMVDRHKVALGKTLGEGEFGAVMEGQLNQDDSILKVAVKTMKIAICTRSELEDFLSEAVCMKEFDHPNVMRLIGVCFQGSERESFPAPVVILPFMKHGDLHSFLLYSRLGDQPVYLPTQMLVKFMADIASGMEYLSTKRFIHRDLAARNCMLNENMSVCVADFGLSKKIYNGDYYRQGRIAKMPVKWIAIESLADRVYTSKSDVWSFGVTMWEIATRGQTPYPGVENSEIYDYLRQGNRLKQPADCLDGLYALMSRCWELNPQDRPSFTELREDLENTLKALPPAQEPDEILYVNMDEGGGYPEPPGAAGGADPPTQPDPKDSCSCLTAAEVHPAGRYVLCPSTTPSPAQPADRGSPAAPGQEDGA
# Assay: Phospho-AKT in-cell Western assay (inhibition of Axl activity)
# Assay type: cell-based
# Settings: Table 1, formula (Ia); Hela cells, Axl antibody cross-linking stimulation, phospho-Akt chemiluminescence normalized to relative cell number
# Method: The compounds of the invention were tested in the following assay for their ability to inhibit Axl activity.
# Phospho-AKT in-Cell Western Assay
# • Cell culture plate: 96 well assay plate (Corning 3610), white, clear bottom, tissue-culture treated. • Cells: Hela cells. • Starvation medium: For Axl stimulation: 0.5% FCS (fetal calf serum) in DMEM, plus Axl/Fc (extracellular domain of AXL fused to immunoglobulin Fc region) (R&D, 154-AL) 500 ng/mL. • For EGF (epidermal growth factor) stimulation: 0.5% FCS in DMEM (Dulbecco's modified Eagles medium). • Poly-L-Lysine 0.01% solution (the working solution): 10 μg/ml, dilute In PBS (phosphate buffered saline). • Axl antibody cross-linking: • 1st: Mouse anti-Axl (R&D, MAB154). • 2nd: Biotin-SP-conjugated AffiniPure goat anti-mouse IgG (H+L) (Jackson ImmunoResearch #115-065-003). • Fixing buffer: 4% formaldehyde in PBS. • Wash buffer: 0.1% TritonX-100 in PBS. • Quenching buffer: 3% H2O2, 0.1% Azide in wash buffer, Azide and hydrogen peroxide 1(H2O2) are added fresh. • Blocking buffer: 5% BSA in TBST (tris buffered saline plus 0.1% Tween 20). • Primary antibody: Rabbit anti-human Phospho-Akt antibody (Cell Signaling 9271): 1×250 diluted in blocking buffer. • Secondary antibody: HRP (horse radish peroxidase)-conjugated Goat anti-Rabbit secondary, stock solution: Jackson ImmunoResearch (Goat anti-Rabbit HRP, #111-035-144) 1:1 diluted in glycerol, store at −20° C. The working solution: 1×2000 dilution of stock in blocking buffer. • Chemiluminescent working solution (Pierce, 37030): SuperSignal ELISA (enzyme linked immunosorbant assay) Pico Chemiluminescent substrate. • Crystal Violet solution: Stock: 2.5% Crystal violet in methanol, filtered and kept at ambient temperature. The working solution: dilute the stock 1:20 with PBS immediately before use. • 10% SDS: working solution: 5% SDS (sodium dodecylsulfate), diluted in PBS Methods: Day 1:
# A 96 well TC (tissue culture treated) plate was coated with 10 μg/mL poly-L-Lysine at 37° C. for 30 min, washed twice with PBS, and air-dried for 5 minutes before cells were added. Hela cells were seeded at 10,000 cells/well and the cells were starved in 100 μL starvation medium containing Axl/Fc for 24 hrs.
# The cells were pre-treated with test compounds by adding 100 μL of 2× test compound to the starvation medium on the cells. The cells were incubated at 37° C. for 1 hr before stimulation.
# The cells were stimulated by Axl-antibody cross-linking as follows: A 5×1st/2nd Axl antibody mixture was made (37.5 μg/mL 1st/100 μg/mL 2nd) in starvation medium and nutated at 4° C. with thorough mixing for 1-2 hours for clustering. The resulting mix was warmed to 37° C. 50 μL of 5×Axl 1st/2nd of antibody cluster was added to the cells and the cells were incubated at 37° C. for 5 min.
# After 5 minutes stimulation, the plate was flicked to remove medium and the plate was tapped onto paper towels. Formaldehyde (4.0% in PBS, 100 μL) was added to fix the cells and the cells were incubated at ambient temperature for 20 min without shaking.
# The cells were washed with a plate washer buffer to remove the formaldehyde solution. The plate was flicked to removed excess wash buffer and tapped onto paper towels. Quenching buffer (100 μL) was added to each well and the cells were incubated at ambient temperature for 20 minutes without shaking.
# The cells were washed with a plate washer buffer to remove the quenching buffer. Blocking buffer (100 μL) was added and the cells were incubated at ambient temperature for at least an hour with gentle shaking.
# The cells were washed with a plate washer buffer and diluted primary antibody (50 μL) was added to each well (blocking buffer was added to the negative control wells instead). The plates were incubated overnight at 4° C. with gentle shaking.
# The wash buffer was removed, diluted secondary antibody (100 μL) was added, and the cells were incubated at ambient temperature for 1 hour with gentle shaking. […]
row,Compound,IC50 [µM]
1,"CC1(C)[C@H]2C[C@H](C(N)=O)[C@](C)(Nc3nc(Nc4ccc(OCCN5CCCC5)cc4)ncc3Cl)[C@@H]1C2 [Compound 29, (1R,2R,3S,5R)-2-(5-chloro-2-(4-(2-(pyrrolidin-1-yl)ethoxy)phenylamino)pyrimidin-4-ylamino)-2,6,6-trimethylbicyclo[3.1.1]heptane-3-carboxamide]",< 1
2,"CNC(=O)[C@H]1C[C@H]2C[C@H](C2(C)C)[C@@]1(C)Nc1nc(Nc2ccc(N3CCN(c4ccc(F)cc4)CC3)cc2)ncc1Cl [Compound 11, (1R,2R,3S,5R)-2-(5-chloro-2-(4-(4-(4-fluorophenyl)piperazin-1-yl)phenylamino)pyrimidin-4-ylamino)-N,2,6,6-tetramethylbicyclo[3.1.1]heptane-3-carboxamide]",> 20
3,"CNC(=O)[C@H]1C[C@H]2C[C@H](C2(C)C)[C@@]1(C)Nc1nc(Nc2ccc(Cl)c(N3CCN(C(=O)OC)CC3)c2)ncc1Cl [Compound 18, (1R,2R,3S,5R)-2-(2-(3-(4-(methoxycarbonyl)piperazin-1-yl)-4-chlorophenylamino)-5-chloropyrimidin-4-ylamino)-N,2,6,6-tetramethylbicyclo[3.1.1]heptane-3-carboxamide]",> 20
4,"CNC(=O)[C@H]1C[C@H]2C[C@H](C2(C)C)[C@@]1(C)Nc1nc(Nc2ccc(OCCN(C)C3CCCC3)cc2)ncc1Cl [Compound 33, (1R,2R,3S,5R)-2-(5-chloro-2-(4-(2-((cyclopentyl)(methyl)amino)ethoxy)phenylamino)pyrimidin-4-ylamino)-N,2,6,6-tetramethylbicyclo[3.1.1]heptane-3-carboxamide]",< 1
5,"CN1CCN(c2ccc(Nc3ncc(Cl)c(N[C@@]4(CCOCc5ccccc5)[C@@H](C(N)=O)C[C@H]5C[C@@H]4C5(C)C)n3)cc2F)CC1 [Compound 17, (1R,2R,3S,5R)-2-(2-(benzyloxy)ethyl)-2-(5-chloro-2-(3-fluoro-4-(4-methylpiperazin-1-yl)phenylamino)pyrimidin-4-ylamino)-6,6-dimethylbicyclo[3.1.1]heptane-3-carboxamide]",> 20
6,"CC1(C)[C@H]2C[C@H](C(=O)NC3CC3)[C@](C)(Nc3nc(Nc4ccc(OCCN5CCCC5)cc4)ncc3Cl)[C@@H]1C2 [Compound 61, (1R,2R,3S,5R)-2-(5-chloro-2-(4-(2-(pyrrolidin-1-yl)ethoxy)phenylamino)pyrimidin-4-ylamino)-N-cyclopropyl-2,6,6-trimethylbicyclo[3.1.1]heptane-3-carboxamide]",< 1
7,"CNC(=O)[C@H]1C[C@H]2C[C@H](C2(C)C)[C@@]1(C)Nc1nc(Nc2ccc(OCCN3CCCC3)cc2)ncc1F [Compound 40, (1R,2R,3S,5R)-2-(5-fluoro-2-(4-(2-(pyrrolidin-1-yl)ethoxy)phenylamino)pyrimidin-4-ylamino)-N,2,6,6-tetramethylbicyclo[3.1.1]heptane-3-carboxamide]",1 to 10
8,"CCN(CC)C1CCN(c2ccc(Nc3ncc(Cl)c(N[C@@]4(C)[C@@H](C(=O)NC)C[C@H]5C[C@@H]4C5(C)C)n3)cc2F)CC1 [Compound 32, (1R,2R,3S,5R)-2-(5-chloro-2-(3-fluoro-4-(4-(diethylamino)piperidin-1-yl)phenylamino)pyrimidin-4-ylamino)-N,2,6,6-tetramethylbicyclo[3.1.1]heptane-3-carboxamide]",< 1

# Same assay, conditions: Table 2, formula (Ib); Hela cells, Axl antibody cross-linking stimulation, phospho-Akt chemiluminescence normalized to relative cell number
row,Compound,IC50 [µM]
1,"CNC(=O)[C@@H]1C[C@@H]2C[C@@H](C2(C)C)[C@]1(C)Nc1nc(Nc2ccc(OCCN3CCCC3)cc2)ncc1Cl [Compound 22, (1S,2S,3R,5S)-2-(5-chloro-2-(4-(2-(pyrrolidin-1-yl)ethoxy)phenylamino)pyrimidin-4-ylamino)-N,2,6,6-tetramethylbicyclo[3.1.1]heptane-3-carboxamide]",> 20

# Same assay, conditions: Table 3, formula (Ic); Hela cells, Axl antibody cross-linking stimulation, phospho-Akt chemiluminescence normalized to relative cell number
row,Compound,IC50 [µM]
1,"CC(C)NC(=O)[C@H]1C[C@H]2C[C@H](C2(C)C)[C@@]1(C)Nc1nc(Nc2ccc3c(c2)OCCN3CCN(C)C)ncc1Cl [Compound 64, (1R,2R,3S,5R)-2-(5-chloro-2-((3,4-dihydro-4-(2-(dimethylamino)ethyl)-2H-benzo[b][1,4]oxazin-7-yl)amino)pyrimidin-4-ylamino)-N-(1-methylethyl)-2,6,6-trimethylbicyclo[3.1.1]heptane-3-carboxamide]",< 1
